In brackets after ≈: the same amount, converted by molar mass.
What was measured:
Type in all cases: cell-based
[1] = system: P. aeruginosa ATCC 27853 (PA111); assay: Minimum inhibitory concentration assay, PA111; settings: Pseudomonas aeruginosa, ATCC27853; P. aeruginosa ATCC 27853, wt; read-out: MICs PA111
Method: (§1) Frozen bacterial strains were thawed and subcultured onto Mueller Hinton Broth (MHB) or other appropriate media (Streptococcus requires blood and Haemophilus requires hemin and NAD). Following incubation overnight, the strains were subcultured onto Mueller Hinton Agar and again incubated overnight. […] Isolated colonies were selected to prepare a starting inoculum equivalent to a 0.5 McFarland standard. The starting inoculum was diluted 1:125 using MHB for further use. Test compounds were prepared by dilution in sterile water to a final concentration of 5.128 mg/mL. Antibiotics (stored frozen, thawed and used within 3 hours of thawing) and compounds were further diluted to the desired working concentrations.
(§2) The assays were run as follows. Fifty μL of MHB was added to wells 2-12 of a 96-well plate. One hundred […] of appropriately diluted antibiotics was added to well 1. Fifty μL of antibiotics was removed from well 1 and added to well 2 and the contents of well 2 mixed by pipetting up and down five times. Fifty μL of the mixture in well 2 was removed and added to well 3 and mixed as above. Serial dilutions were continued in the same manner through well 12. Fifty μL was removed from well 12 so that all contained 50 μL. Fifty μL of the working inoculum was then added to all test wells. A growth control well was prepared by adding 50 μL of working inoculum and 50 μL of MHB to an empty well. The plates were then incubated at 37° C. overnight, removed from the incubator and each well was read on a plate reading mirror. The lowest concentration (MIC) of test compound that inhibited the growth of the bacteria was recorded.

[2] = system: S. pneumoniae SP160 (tet resistant: tet M); assay: Minimum inhibitory concentration assay, SP160; settings: Streptococcus pneumoniae, read-out: MICs SP160
Method: as §1, §2

[3] = system: E. cloacae ATCC 13047 (EC108); assay: Minimum inhibitory concentration assay, EC108; settings: Enterobacter cloacae, ATCC13047; E. cloacae ATCC 13047, wt; read-out: MICs EC108
Method: as §1, §2

[4] = system: E. faecalis ATCC 29212 (EF103); assay: Minimum inhibitory concentration assay, EF103; settings: Enterococcus faecalis, ATCC29212, read-out: MICs EF103
Method: as §1, §2

[5] = system: E. faecalis EF159 (tet resistant: tetM); assay: Minimum inhibitory concentration assay, EF159; settings: Enterococcus faecalis, read-out: MICs EF159
Method: as §1, §2

[6] = system: S. aureus SA161 (tet resistant: tet(M) ribosomal protection); assay: Minimum inhibitory concentration assay, SA161; settings: Staphylococcus aureus, read-out: MICs SA161
Method: as §1, §2

[7] = system: S. aureus ATCC 29213 (SA101, MSSA); assay: Minimum inhibitory concentration assay, SA101; settings: Staphylococcus aureus; S. aureus ATCC 29213, MSSA control; read-out: MICs SA101
Method: as §1, §2

[8] = system: S. pneumoniae ATCC 49619 (SP106); assay: Minimum inhibitory concentration assay, SP106; settings: Streptococcus pneumoniae, ATCC49619; S. pneumoniae ATCC 49619, wt; read-out: MICs SP106
Method: as §1, §2

[9] = system: A. baumanii ATCC 19606 (AB110); assay: Minimum inhibitory concentration assay, AB110; settings: Acinetobacter baumannii, ATCC19606; A. baumanii ATCC 19606, wt; read-out: MICs AB110
Method: as §1, §2

[10] = system: S. aureus ATCC 13709 (SA100, MSSA, Smith strain); assay: Minimum inhibitory concentration assay, SA100; settings: Staphylococcus aureus; S. aureus ATCC 13709, MSSA Smith strain; read-out: MICs SA100
Method: as §1, §2

[11] = system: S. aureus SA158 (tet resistant: tetK efflux); assay: microbe, parasite or virus in culture; settings: Staphylococcus aureus, read-out: MICs SA158
Method: as §1, §2

[12] = system: K. pneumoniae KP153 (tet resistant: tetA efflux); assay: microbe, parasite or virus in culture; settings: Klebsiella pneumoniae, read-out: MICs KP153
Method: as §1, §2

[13] = system: E. coli EC155 (tet resistant: tetA efflux); assay: microbe, parasite or virus in culture; settings: Escherichia coli; E. coli tet resistant: tetA (efflux); read-out: MICs EC155
Method: as §1, §2

[14] = system: K. pneumoniae ATCC 13883 (KP109); assay: Minimum inhibitory concentration assay, KP109; settings: Klebsiella pneumoniae, ATCC13883; K. pneumoniae ATCC 13883, wt; read-out: MICs KP109
Method: as §1, §2

[15] = system: E. coli ATCC 25922 (EC107); assay: Minimum inhibitory concentration assay, EC107; settings: Escherichia coli, ATCC25922; E. coli ATCC 25922, wt; read-out: MICs EC107
Method: as §1, §2

## CN(C)[C@@H]1C(O)=C(C(N)=O)C(=O)[C@@]2(O)C(O)=C3C(=O)c4c(O)c(NC(=O)CNCC(C)(C)C)cc(F)c4C[C@H]3C[C@@H]12 [Compound 15]
[1]
  MIC: 16 µg/mL (≈ 27.8 µM)
[2]
  MIC: 0.016 µg/mL (≈ 0.0278 µM)
[3]
  MIC: 4 µg/mL (≈ 6.96 µM)
[4]
  MIC: 0.5 µg/mL (≈ 0.87 µM)
[5]
  MIC: 0.5 µg/mL (≈ 0.87 µM)
[6]
  MIC: 0.5 µg/mL (≈ 0.87 µM)
[7]
  MIC: 0.5 µg/mL (≈ 0.87 µM)
[8]
  MIC: 0.016 µg/mL (≈ 0.0278 µM)
[9]
  MIC: 0.125 µg/mL (≈ 0.218 µM)
[10]
  MIC: 0.5 µg/mL (≈ 0.87 µM)
[11]
  MIC: 0.25 µg/mL (≈ 0.435 µM)
[12]
  MIC: 4 µg/mL (≈ 6.96 µM)
[13]
  MIC: 4 µg/mL (≈ 6.96 µM)
[14]
  MIC: 2 µg/mL (≈ 3.48 µM)
[15]
  MIC: 1 µg/mL (≈ 1.74 µM)

## COCCCNCC(=O)Nc1cc(F)c2c(c1O)C(=O)C1=C(O)[C@]3(O)C(=O)C(C(N)=O)=C(O)[C@@H](N(C)C)[C@@H]3C[C@@H]1C2 [Compound 27]
[1]
  MIC: > 32 µg/mL
[2]
  MIC: 0.5 µg/mL (≈ 0.867 µM)
[3]
  MIC: 16 µg/mL (≈ 27.7 µM)
[4]
  MIC: 2 µg/mL (≈ 3.47 µM)
[5]
  MIC: 4 µg/mL (≈ 6.94 µM)
[6]
  MIC: 4 µg/mL (≈ 6.94 µM)
[7]
  MIC: 2 µg/mL (≈ 3.47 µM)
[8]
  MIC: 0.125 µg/mL (≈ 0.217 µM)
[9]
  MIC: 16 µg/mL (≈ 27.7 µM)
[10]
  MIC: 2 µg/mL (≈ 3.47 µM)
[11]
  MIC: 16 µg/mL (≈ 27.7 µM)
[12]
  MIC: 32 µg/mL (≈ 55.5 µM)
[13]
  MIC: 32 µg/mL (≈ 55.5 µM)
[14]
  MIC: 8 µg/mL (≈ 13.9 µM)
[15]
  MIC: 4 µg/mL (≈ 6.94 µM)

## CN(C)[C@@H]1C(O)=C(C(N)=O)C(=O)[C@@]2(O)C(O)=C3C(=O)c4c(O)c(NC(=O)CN5CC[C@@H](O)C5)cc(F)c4C[C@H]3C[C@@H]12 [Compound 39]
[1]
  MIC: > 32 µg/mL
[2]
  MIC: 0.5 µg/mL (≈ 0.87 µM)
[3]
  MIC: 16 µg/mL (≈ 27.8 µM)
[4]
  MIC: 2 µg/mL (≈ 3.48 µM)
[5]
  MIC: 2 µg/mL (≈ 3.48 µM)
[6]
  MIC: 2 µg/mL (≈ 3.48 µM)
[7]
  MIC: 2 µg/mL (≈ 3.48 µM)
[8]
  MIC: 0.25 µg/mL (≈ 0.435 µM)
[9]
  MIC: 32 µg/mL (≈ 55.7 µM)
[10]
  MIC: 2 µg/mL (≈ 3.48 µM)
[11]
  MIC: 16 µg/mL (≈ 27.8 µM)
[12]
  MIC: > 32 µg/mL
[13]
  MIC: > 32 µg/mL
[14]
  MIC: 16 µg/mL (≈ 27.8 µM)
[15]
  MIC: 4 µg/mL (≈ 6.96 µM)

## CN(C)[C@@H]1C(O)=C(C(N)=O)C(=O)[C@@]2(O)C(O)=C3C(=O)c4c(O)c(NC(=O)CN5CC6CCCC6C5)cc(F)c4C[C@H]3C[C@@H]12 (stereo partly drawn) [Compound 45]
[1]
  MIC: > 32 µg/mL
[2]
  MIC: 0.06 µg/mL (≈ 0.1 µM)
[3]
  MIC: 4 µg/mL (≈ 6.68 µM)
[4]
  MIC: 0.25 µg/mL (≈ 0.418 µM)
[5]
  MIC: 0.5 µg/mL (≈ 0.835 µM)
[6]
  MIC: 1 µg/mL (≈ 1.67 µM)
[7]
  MIC: 0.5 µg/mL (≈ 0.835 µM)
[8]
  MIC: 0.125 µg/mL (≈ 0.209 µM)
[9]
  MIC: 0.06 µg/mL (≈ 0.1 µM)
[10]
  MIC: 0.5 µg/mL (≈ 0.835 µM)
[11]
  MIC: 0.5 µg/mL (≈ 0.835 µM)
[12]
  MIC: 4 µg/mL (≈ 6.68 µM)
[13]
  MIC: 2 µg/mL (≈ 3.34 µM)
[14]
  MIC: 2 µg/mL (≈ 3.34 µM)
[15]
  MIC: 1 µg/mL (≈ 1.67 µM)

## CN(C)[C@@H]1C(O)=C(C(N)=O)C(=O)[C@@]2(O)C(O)=C3C(=O)c4c(O)c(NC(=O)CNCC(F)(F)F)cc(F)c4C[C@H]3C[C@@H]12 [Compound 22]
[1]
  MIC: > 32 µg/mL
[2]
  MIC: 1 µg/mL (≈ 1.71 µM)
[3]
  MIC: > 32 µg/mL
[4]
  MIC: 2 µg/mL (≈ 3.41 µM)
[5]
  MIC: 4 µg/mL (≈ 6.82 µM)
[6]
  MIC: 2 µg/mL (≈ 3.41 µM)
[7]
  MIC: 1 µg/mL (≈ 1.71 µM)
[8]
  MIC: 0.5 µg/mL (≈ 0.853 µM)
[9]
  MIC: 2 µg/mL (≈ 3.41 µM)
[10]
  MIC: 1 µg/mL (≈ 1.71 µM)
[11]
  MIC: 4 µg/mL (≈ 6.82 µM)
[12]
  MIC: > 32 µg/mL
[13]
  MIC: > 32 µg/mL
[14]
  MIC: 32 µg/mL (≈ 54.6 µM)
[15]
  MIC: 16 µg/mL (≈ 27.3 µM)

## CN(C)[C@@H]1C(O)=C(C(N)=O)C(=O)[C@@]2(O)C(O)=C3C(=O)c4c(O)c(NC(=O)CNCC5CC5)cc(F)c4C[C@H]3C[C@@H]12 [Compound 20]
[1]
  MIC: 8 µg/mL (≈ 14.3 µM)
[2]
  MIC: ≤ 0.0156 µg/mL
[3]
  MIC: 1 µg/mL (≈ 1.79 µM)
[4]
  MIC: ≤ 0.0156 µg/mL
[5]
  MIC: 0.0625 µg/mL (≈ 0.112 µM)
[6]
  MIC: 0.25 µg/mL (≈ 0.448 µM)
[7]
  MIC: ≤ 0.0156 µg/mL
[8]
  MIC: ≤ 0.0156 µg/mL
[9]
  MIC: 1 µg/mL (≈ 1.79 µM)
[10]
  MIC: 0.25 µg/mL (≈ 0.448 µM)
[11]
  MIC: 0.5 µg/mL (≈ 0.895 µM)
[12]
  MIC: 4 µg/mL (≈ 7.16 µM)
[13]
  MIC: 8 µg/mL (≈ 14.3 µM)
[14]
  MIC: 1 µg/mL (≈ 1.79 µM)
[15]
  MIC: 0.25 µg/mL (≈ 0.448 µM)

Reference: patent US8796245B2 (TetraPhase Pharmaceuticals, Inc., priority 2008, dated 2014)
